{"source": "patent US20080200491A1", "about": "“1,2-Dihydro-Spiro[3H-Indole-3,4'-Piperidine] Compounds, as Modulators of the Mas Receptor Novel” (priority 2005, published 2008)", "key": {"Mas receptor [1]": {"biological_target": "T1, Mas receptor (Homo sapiens, UniProt P04201)", "T1 sequence (P04201 1-325)": "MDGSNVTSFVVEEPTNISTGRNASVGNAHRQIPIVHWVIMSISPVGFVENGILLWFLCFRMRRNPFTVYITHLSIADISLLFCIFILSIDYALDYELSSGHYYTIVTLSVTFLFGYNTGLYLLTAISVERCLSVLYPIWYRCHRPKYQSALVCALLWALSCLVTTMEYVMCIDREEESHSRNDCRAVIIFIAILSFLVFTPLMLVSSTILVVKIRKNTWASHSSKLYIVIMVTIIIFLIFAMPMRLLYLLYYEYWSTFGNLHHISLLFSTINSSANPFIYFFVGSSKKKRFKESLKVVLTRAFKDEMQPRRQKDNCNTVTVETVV", "test": "Mas receptor IP3 assay (inverse agonist assay)", "type": "cell-based", "set-up": "expressed in transfected cells", "details": "for IC50: n = 2", "procedure": "The Mas receptor IP3 assay was performed using a mammalian cell line (HEK293) which was transfected with a plasmid containing the human Mas receptor and selected for stable expression of the receptor. […] To achieve this, Mas receptor expression levels were increased by transiently transfecting the same Mas receptor stable cell line with additional human Mas receptor plasmid DNA following standard procedures. These cells were used in the Mas receptor IP3 assay approximately 24 hours post-transfection.\nCells were split into 96-well plates (50,000 cells/well) and allowed to attach for a period of 6 hours. The growth medium was then replaced with medium supplemented with 4 μCi/mL [3H]myo-inositol (100 μl; Perkin Elmer Life Sciences) and the cells were allowed to incubate for approximately 20 hours. Test compounds were serially diluted in inositol-free media containing 10 mM LiCl. The media in the plates was removed by aspiration, replaced with these test compound solutions and incubated at 37° C. for 1 hour.\nFollowing this incubation, the media was removed by aspiration and replaced with buffer containing 0.1M formic acid. The plates were then frozen overnight at −80° C. to achieve complete cell lysis.\nThe following day, the assay plates were thawed at room temperature. The thawed contents were then transferred to 96-well filter plates (Nillipore, Multiscreen) pre-loaded with resin (Biorad, AG1-X8 100-200 mesh, formate form). The plate was filtered using a vacuum manifold and the resin was washed multiple times with water. An elution buffer was then applied (200 μl, 0.2M Ammonium formate/0.1M formic acid) and the resulting eluent was collected, under vacuum, in a 96-well collection plate. Aliquots of the eluent (80 μl) were transferred to filter plates (Whatman, Unifilter GF/C) and dried in a 45° C. oven overnight. Dried plates were counted on a scintillation counter following the addition of an appropriate scintillant (Perkin Elmer Life Sciences, Optiphase Supermix or Hi-Safe 3)."}, "isolated rat hearts": {"tested_on": "isolated rat hearts", "test": "Ischemia-reperfusion assay in isolated adult rat hearts (Langendorff apparatus)", "procedure": "Male Sprague-Dawley rats (300-350 g body weight) were anesthetized with Inactin (100 mg/kg IP) 20 minutes prior to surgery. The chest wall was opened and the heart was rapidly excised and immediately placed into ice-cold Krebs-Henseleit (KH) buffer (118 mM NaCl, 4.7 mM KCl, 1.2 mM MgSO4, 1.2 mM KH2PO4, […], 25 mM NaHCO3, 11 mM glucose, 1 mM pyruvate, and 0.005 mM EDTA) to produce cardiac arrest. The aorta was then cannulated and the heart retrogradely perfused with KH buffer maintained at 37° C. in a reservoir bubbled with 95% O2/5% CO2 (pH7.4) on the Langendorff apparatus at a constant pressure of 70 mmHg. Myocardial temperature was maintained at 37° C. by partially submerging the heart into a water-jacketed chamber filled with KH buffer. A water filled latex balloon attached to a metal cannula and inserted into the left ventricle via the mitral valve and connected to a pressure transducer (Powerlab, ADInstruments, Inc) was used for measurement of left ventricular pressure. The balloon was initially inflated to an end-diastolic pressure of 10 mmHg. After allowing 20 minutes for equilibration, rat hearts were subjected to 10 minutes of KH buffer containing drug or vehicle followed by 30 minutes of ischemia followed by 30 minutes of reperfusion. The difference between peak-systolic and end diastolic pressures, or left ventricular developed pressure (LVDP) was calculated as an index of contractile function and measured just prior to ischemia and at 10, and 30 minutes of reperfusion. Percent recovery of LV function [(LVDP post reperfusion/LVDP pre-ischemia)[…]] was averaged across 5 vehicle and 4 drug treated hearts and one-way anova with Newman-Keuls Multiple Comparison Test was used to determine statistical significance.\nEpicardial electrogram recordings were also taken from the isolated rat hearts used in FIGS. 2 and 3. Briefly, silver wire electrodes were placed on the right atrium and the apex of the left ventricle, allowing an epicardial electrogram to be recorded. Premature ventricular contraction (PVC), ventricular tachycardia and ventricular fibrillation were common arrhythmias observed during reperfusion following 30 minutes of global ischemia. Hearts were considered positive for reperfusion arrhythmias if ventricular arrhythmias were sustained for greater than 30 seconds during the first 5 minutes of reperfusion."}, "blood pressure in rats": {"tested_on": "blood pressure in rats", "test": "Blood pressure measurement in rats by telemetry", "type": "in vivo, rat", "details": "conscious rats, IP injection, FIG. 5", "procedure": "Cardiac parameters were measured by small transmitting devices, (Data Sciences PhysioTel Telemetry devices), implanted in rats. The implanted transmitting devices were used to measure blood pressure in freely moving conscious animals. There are no external connections or tethering devices that can inhibit animal movement and induce unnecessary stress, which can affect the outcome of a study.\nThis procedure was performed under modified aseptic conditions. Rats were anesthetized with Isoflurane gas that ranged in concentration from 1.5-2.0%. A cardiac telemetry device was implanted into the peritoneal cavity with a pressure sensing catheter situated no more than 2 cm inside the descending aorta. This was accomplished as follows: The rat was shaved and the incision site was prepared with an iodine solution. The rat was then placed on a heating pad to maintain a constant body temp of 38+/−0.5° C., and covered with a sterile drape. A 6 cm midline abdominal incision was made to provide access to the implantation area. […] The rats were monitored for 7 days to ensure proper recovery.\nOn the test day, injections with either vehicle or with test compound were administered via IP injection in volumes of ˜250 μl. Animals were monitored with a resolution of approximately one measurement/min for 60 minutes before injection of vehicle or compound and for about 120 minutes after injection."}, "[2]": {"tested_on": "isolated rat aortic rings", "test": "Angiotensin II induced vasoconstriction in isolated rat aortic rings", "details": "pretreatment 15 min; Angiotensin II 1 uM; same doses also tested against norepinephrine 1 uM; FIG. 6", "procedure": "Sprague-Dawley rats (250-300 g) were euthanized via CO2 chamber. […] The excess adventitial tissue was carefully removed and the endothelium was sloughed off by rinsing with buffer via syringe. The vessel was then cut into 2-3 mm rings and mounted on wire stirrups connected to force transducers (World Precision Instruments, Myobath 4 channel system, FORT-10) to record changes in isometric force. The aortic rings were then placed in 15 mL organ baths filled with buffer at 37° C. with continuous aeration (95% O2 and 5% CO2)\nThe rings were left to equilibrate in buffer for 30 minutes. A resting tension of 4 g was applied and the rings were allowed to equilibrate for 1 hour. During the equilibration period, the buffer was changed every 30 minutes. After equilibration was complete, the aortic rings were tested for viability and maximal contraction response by addition of 50 mM KCl.\nAortic rings were contracted with AngiotensinII (1 uM) Sigma, St Louis, Mo. and the isometric force recorded. […] The aortic rings were then treated with the agonist, AngiotensinII (1 uM), and the change in isometric force was recorded. […]\nData for each group (Compound S75 concentration) was from n=4 aortic rings. Change in aortic tension after AngiotensinII treatment was expressed as a percentage to 50 mM KCL in order to normalize tension for each aortic ring."}, "Mas receptor [3]": {"biological_target": "Mas receptor", "details": "Santos et al., PNAS 2003; cited from earlier work"}, "Mas receptor [4]": {"biological_target": "T1, Mas receptor", "details": "Dong et al., Cell 2001; cited from earlier work"}}, "note": "Entries after “also recorded” stand apart in the source; their conditions may differ.", "data": [{"compound": "CC(C)c1ccc2c(c1)C1(CCN(CCC(F)(F)F)CC1)CN2C(=O)c1c(F)cccc1F", "note": "[Compound 1, 1′-(3,3,3-trifluoro-propyl)-1,2-dihydro-5-isopropyl-1-(2,6-difluoro-benzoyl)-spiro[3H-indole-3,4′-piperidine]]", "values": [{"measurement": "IC50", "setting": "Mas receptor [1]", "result": 28.6, "unit": "nM"}]}, {"compound": "CCCN1CCC2(CC1)CN(C(=O)c1c(F)cccc1F)c1ccc(C(C)(C)C)cc12", "note": "[Compound 4, 1′-(propyl)-1,2-dihydro-5-tert-butyl-1-(2,6-difluoro-benzoyl)-spiro[3H-indole-3,4′-piperidine]]", "values": [{"measurement": "IC50", "setting": "Mas receptor [1]", "result": 35.1, "unit": "nM"}]}, {"compound": "C=CCN1CCC2(CC1)CN(C(=O)c1cccc(F)c1F)c1ccc(F)cc12", "note": "[Compound S75, 1′-(allyl)-1,2-dihydro-5-fluoro-1-(2,3-difluoro-benzoyl)-spiro[3H-indole-3,4′-piperidine]]", "values": [{"measurement": "left ventricle function after reperfusion compared to vehicle treatment", "setting": "isolated rat hearts; 30 μM, 30 min ischemia, 30 min reperfusion, FIG. 2", "result": "significant increase in left ventricle function"}, {"measurement": "level of left ventricle function after reperfusion versus level before ischemia", "setting": "isolated rat hearts; 30 μM, FIG. 2", "result": "comparable to the level before ischemia"}, {"measurement": "ischemic contracture: end diastolic pressure (EDP) compared to vehicle treatment", "setting": "isolated rat hearts; 30 μM, FIG. 3", "result": "significant decrease in end diastolic pressure"}, {"measurement": "early reperfusion arrhythmias", "setting": "isolated rat hearts; ventricular arrhythmias sustained > 30 seconds during first 5 minutes of reperfusion, FIG. 4", "result": "none of the four hearts"}, {"measurement": "change in blood pressure after treatment", "setting": "blood pressure in rats", "result": "does not raise blood pressure; also recorded: did not result in a significant change in blood pressure"}, {"measurement": "inhibition of angiotensin II induced vasoconstriction", "setting": "[2]", "result": "potent and selective inhibition"}, {"measurement": "mode of action at the Mas receptor", "setting": "Mas receptor [1]; FIG. 1", "result": "inverse agonist"}]}, {"compound": "DRVYIHP [Ang (1-7), H-Asp-Arg-Val-Tyr-Ile-His-Pro-OH]", "values": [{"measurement": "Kd", "setting": "Mas receptor [3]", "result": 0.33, "unit": "nM"}]}, {"compound": "a peptide called NPFF, reported to bind the Mas receptor weakly and NPFF1/NPFF2 with high affinity", "values": [{"measurement": "EC50", "setting": "Mas receptor [4]", "result": "~400", "unit": "nM"}]}, {"compound": "angiotensin II: known vasoconstrictor peptide, control compound in the blood pressure study (DRVYIHPF; Angiotensin-2; UniProt P01019 25-32, looked up) [reference compound]", "values": [{"measurement": "change in blood pressure after treatment", "setting": "blood pressure in rats", "result": "significant increase in blood pressure"}]}]}
